The test system of one experiment is MCF7. The experiment can be described thus: Cytotoxicity against human MCF7 cells after 48 hrs by MTT assay. In kind it is functional, cell-based. The following applies: MCF7, 48 h. Background: Tetrazolium dyes change colour on reduction, which living cells bring about.
In experiment [1] the test system is HeLa. The experiment can be described thus: Cytotoxicity against human HeLa cells after 48 hrs by MTT assay. In kind it is functional, cell-based.
Experiment [2] relates to HeLa. The experiment can be described thus: Ratio of ellipticine IC50 to compound IC50 for human HeLa cells. In kind it is functional.

As for `Cc1ccc2[nH]c3c(c2c1)CC/C(=C\c1cc2c(ccc4ccccc42)nc1Cl)C3=O`, the IC50 in the experiment on MCF7 was more than 100 µM; in the experiment on HeLa [1], 35.8 µM.
Taken in the same sequence, the figures for `O=C1/C(=C/c2cc3c(ccc4ccccc43)nc2Cl)CCc2c1[nH]c1ccc(Cl)cc21` were 75.5 µM and 32.5 µM.
Taken in the same sequence, the figures for `O=C1/C(=C/c2cc3c(ccc4ccccc43)nc2Cl)CCc2c1[nH]c1ccccc21` were more than 100 µM and 42.3 µM.
Consider `Cc1ccc2[nH]c3c(c2c1)CCc1c-3noc1-c1cc2c(ccc3ccccc32)nc1Cl`, for which the IC50 in the experiment with MCF7 was 67.9 µM; with HeLa [1], 26.1 µM.
Take `Clc1ccc2[nH]c3c(c2c1)CCc1c-3noc1-c1cc2c(ccc3ccccc32)nc1Cl`: the results for the IC50 with MCF7 and in the experiment with HeLa [1] were 55.1 µM and 22.3 µM, respectively.
With `Clc1nc2ccc3ccccc3c2cc1-c1onc2c1CCc1c-2[nH]c2ccccc12`, the IC50 in the experiment with MCF7 was determined as 70.5 µM; in the experiment with HeLa [1], 27.5 µM.
Turning to `CCOc1nc2c(c(-c3cc4c(ccc5ccccc54)nc3Cl)c1C#N)CCc1c-2[nH]c2ccc(C)cc12`, the figures for the IC50 in the experiment on MCF7 and in the experiment on HeLa [1] were 37.4 µM and 9.63 µM, respectively.
Turning to `CCOc1nc2c(c(-c3cc4c(ccc5ccccc54)nc3Cl)c1C#N)CCc1c-2[nH]c2ccc(Cl)cc12`, in the experiment with HeLa [2], the “Ratio IC50” value is 1.21. Moreover, the figures for the IC50 in the experiment with MCF7 and with HeLa [1] were 34.5 µM and 8.11 µM, respectively.
For the molecule `CCOc1nc2c(c(-c3cc4c(ccc5ccccc54)nc3Cl)c1C#N)CCc1c-2[nH]c2ccccc12`, the figures for the half-maximal inhibitory concentration (IC50) with MCF7 and in the experiment on HeLa [1] were 46.6 µM and 12.3 µM, respectively.
Regarding `Cc1ccc2[nH]c3c(ccc4c(-c5cc6c(ccc7ccccc76)nc5Cl)nc(N)nc43)c2c1`, the half-inhibitory concentration (IC50) with MCF7 was determined as 39.4 µM; in the experiment with HeLa [1], 14.8 µM.
As for `Nc1nc(-c2cc3c(ccc4ccccc43)nc2Cl)c2ccc3c4cc(Cl)ccc4[nH]c3c2n1`, the results for the IC50 in the experiment on MCF7 and in the experiment on HeLa [1] were 32.6 µM and 12.4 µM, respectively.
Taken in the same sequence, the figures for `Nc1nc(-c2cc3c(ccc4ccccc43)nc2Cl)c2ccc3c4ccccc4[nH]c3c2n1` were 42.9 µM and 18.6 µM.
The corresponding values for `Cc1c2ccncc2c(C)c2c1[nH]c1ccccc12` [ELLIPTECINE] are 16.7 µM and 9.81 µM.

Usually IC50 stands for the midpoint of a concentration-inhibition curve. A high value points to a need for much substance.

The values are drawn from ChEMBL document CHEMBL3132743, “Synthesis of hetero annulated carbazoles: exploration of in vitro cytotoxicity and molecular docking studies” (Medchemcomm, 2013).
